Data set [1] relates to NCI-H358 NSCLC and HT29 colon adenocarcinoma xenografts and normal organs. The data set is described as follows: In vivo localization in mice bearing human tumor xenografts (immunohistochemistry 24 h after i.v. injection). Also noted: species or system mouse.
Protocol: Tumors were grown subcutaneously in immunocompromised mice (NCI-H358 NSCLC in nu/nu mice and HT29 colon adenocarcinoma in SCID mice) until the tumor volume was approximately 1 cm^3. 100 μg of unlabeled antibody for studies using SCID mice, or 100 μg of biotinylated antibody for studies using nude mice, was injected intravenously via a tail vein. Twenty four hours later, the mice were anesthetized, perfused with PBS, and tumor and organs including heart, lungs, liver, kidneys, intestines and spleen were collected and snap frozen in liquid nitrogen.
The tumor and organs from each mouse were sectioned on a cryostat and stained for antibody immunohistochemically as above, with the exception that sections from the nude mice were developed using peroxidase labeled streptavidin-biotin complex (Dako, Carpinteria, Calif.) and the sections from the SCID mice were developed using two peroxidase-conjugated secondary antibodies, a goat anti-mouse IgG+IgM followed by a rabbit anti-goat IgG.
100 μg of GV39M and 3E7 or isotype-matched control IgG were injected into SCID mice bearing HT29 human colonic adenocarcinomas. Twenty-four hours later, the mice were sacrificed, exsanguinated and the tumors and tissues were removed.
Another data set deals with HT1080 fibrosarcoma. The data set is described as follows: Treatment of established HT1080 fibrosarcoma xenografts. Format: in vivo, nu/nu mice. As to conditions: 100 μg every two days. The method, then: (§1) FIG. 5A and FIG. 5B. […] Treatments (T) were 100 μg of the IgG given i.p., except for the initial treatment that consisted of 500 μg of the IgG given i.v. Mean tumor volume along with the SEM is shown. At the end of the study (day 116), the mice were sacrificed and the tumors dissected out and weighed. […] The mice were treated every other day as indicated (T). […] Mean tumor volume along with the SE is shown.
(§2) Male nu/nu mice bearing subcutaneous NCI-H358 tumors or HT1080 fibrosarcoma 200-400 mm^3 in size were injected i.p. with test or control antibodies. The NCI-H358 bearing mice were treated with 100 μg of antibodies per injection three times a week during the first week and twice a week during the second and third week. The mice were then switched to 50 μg per injection every five days. The HT1080 bearing mice were treated with 100 μg of the indicated antibody or saline every other day throughout the duration of the study. In both studies, mice were sacrificed when their tumors reached 2500 mm^3 in size or earlier if tumors began to ulcerate.

The test system of another data set is NCI-H358 NSCLC tumors. The data set is described as follows: Treatment of established NCI-H358 NSCLC tumor xenografts. It is filed as in vivo, nu/nu mice. The method, then: FIG. 4. […] Mean tumor volume along with the SEM over 116 days is shown.
as §1, §2
Doses were 50-100 μg every 3-5 days. […] In addition to measuring mean tumor volume (FIG. 4), photographs of the mice from each treatment group were also taken to show the differences in tumor size and appearance at the end of the study.

A further data set addresses T1, mouse VEGF (Mus musculus, UniProt Q00731).
T1 sequence (Q00731 27-190 isoform Q00731-2): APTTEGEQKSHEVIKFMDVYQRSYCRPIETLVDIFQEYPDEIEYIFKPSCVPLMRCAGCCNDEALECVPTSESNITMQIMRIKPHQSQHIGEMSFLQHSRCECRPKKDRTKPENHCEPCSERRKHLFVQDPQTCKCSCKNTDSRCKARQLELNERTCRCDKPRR
The data set is described as follows: Indirect ELISA with mouse VEGF. It is filed as binding.

A further data set deals with VEGFR2. The data set is described as follows: VEGF-induced phosphorylation of VEGFR2 in PAE/KDR cells (immunoprecipitation, western blot). As to conditions: antibody 100 nM. It is filed as cell-based, porcine aortic endothelial cells transfected with VEGFR2. The method, then: PAE/KDR, PAE/FLT, and bEND.3 cells were grown to 80-90% confluency in 100 mm tissue dishes in media containing 5% serum. The cells were then serum starved for 24 hours in media containing 0.1% serum. After pretreatment with 100 […] in PBS for 30 min, the cells were incubated with 5 nM (200 ng/ml) VEGF165, 5 nM (100 ng/ml) bFGF (R&D Systems, Minneapolis, Minn.), or A673 tumor conditioned media in the presence or absence of control or test antibodies for additional 15 min.
The cells were then washed with ice-cold PBS containing 10 mM EDTA, 2 mM sodium fluoride, and 2 mM sodium orthovanadate and lysed in lysis buffer (50 mM Tris, 150 mM NaCl, 1% Nonidet P40, 0.25% sodium deoxycholate, 0.1% CHAPS, 5 mM EDTA, 1.5 mM MgCl2, 2 mM sodium fluoride, 2 mM sodium orthovanadate, 10% glycerol and protease inhibitors (Complete Protease Inhibitor Cocktail tablets, Boehringer Mannheim)). The lysates were clarified by centrifugation and resulting supematant used for immunoprecipitation.
The reactions using the chicken anti-FLT-1 antibody were subsequently incubated with a bridging goat anti-chicken antibody (Kirkegaard and Perry Laboratories, Inc.) for 1 h at 4° C. […]

In another data set the test system is VEGFR1 (FLT-1), Flt-1/Fc. The data set is described as follows: ELISA: VEGF binding to VEGFR1-coated wells in presence of antibody. As to conditions: summary table. The method, then:
FIG. 2. […] The plate was then incubated with rabbit anti-VEGF (A-20, Santa Cruz Biotechnology, Inc.) at 1 μg/ml and developed using a peroxidase conjugated goat anti-rabbit antibody. Assays were performed in triplicate. Mean percent binding in the absence of antibody is shown, together with the standard deviation.
The assay was also performed by coating wells of a microtiter plate with either control or test IgG.

A further data set has as its system NCI-H358 NSCLC. The data set is described as follows: In vivo tumor growth inhibition, newly-implanted NCI-H358 NSCLC. Further details: species or system nu/nu mice. The procedure:
FIG. 3A and FIG. 3B. […] FIG. 3A: 1×10^7 NCI-H358 NSCLC cells were injected subcutaneously into nu/nu mice on day 0. FIG. 3B: 5×10^6 A673 rhabdomyosarcoma cells were injected subcutaneously into nu/nu mice on day 0. Mice were injected i.p. with the indicated IgG on day 1 and 2 times/week thereafter. […] Tumors were measured 2-3 times per week. Mean and standard error is shown for the duration of the study in FIG. 3A, while data for the last day of the study (day 26) is shown in FIG. 3B.
Nu/nu mice were injected subcutaneously with either 1×10^7 NCI-H358 NSCLC cells or 5×10^6 A673 rhabdomyosarcoma cells on day 0. […] The tumors were then measured twice per wk for a period of approximately six wk for the NCI-H358 bearing mice and four wk for the A673 bearing mice. Tumor volume was calculated according to the formula: volume=L×W×H, where L=length, W=width, H=height.

“Also recorded” adds a separate entry of the source.

With “2C3: anti-VEGF monoclonal IgG2a,k from hybridoma ATCC PTA 1595; blocks VEGF binding to VEGFR2 but not VEGFR1”, the “Immunohistochemical Reactivity, Tumor” value in data set [1] (24 hours after i.v. antibody, 3E7 and GV39M bound tumor vascular endothelium, 2C3 tumor stroma) is recorded as 3+. Besides, the “In vivo localization in H358 human NSCLC tumor” value in data set [1] (biotinylated antibody, i.v., nu/nu mice) is recorded as “intense staining of connective tissue surrounding the vasculature”. Also, in data set [1] (mouse, in vivo), the “In vivo localization in HT29 human tumor model” value is on record as “localized strongly to the connective tissue” and the “In vivo normal mouse tissue localization” value was “None”. Moreover, the “Effect on growth of established HT1080 tumors” value in the data set on HT1080 fibrosarcoma is listed as “arrested the growth of the tumors”. In the data set on NCI-H358 NSCLC tumors (100 μg i.p., initial treatment 500 μg i.v.), the “Mean tumor weight at end of study (day 116)” value stood at 0.054 g. In the data set with NCI-H358 NSCLC tumors (100 μg, start 480 mm^3 (2C3), 428 mm^3 (3E7)), the “Mean tumor volume after approximately 14 wk of treatment” value is reported as 84 mm^3. Moreover, the “Mean tumor volume at the end of the study as % of initial mean tumor volume” value in the data set with NCI-H358 NSCLC tumors (50-100 μg i.p. every 3-5 days, approximately 10 weeks) worked out at 30%. Further, in the data set with NCI-H358 NSCLC tumors (approximately 14 wk of treatment, 100 μg), the “Decrease in mean tumor volume” value was “approximately 80%”. Moreover, the “Regression of established NCI-H358 tumors” value with NCI-H358 NSCLC tumors (mouse, in vivo) is on record as “caused significant tumor regressions; also recorded: slow regression of the tumors”. The “Reactivity with mouse VEGF” value with mouse VEGF is “all the antibodies except 2C3 react with mouse VEGF”. Further, the “Blocking of VEGF-induced phosphorylation of VEGFR2” value in the data set on VEGFR2 was “block VEGF-induced phosphorylation of VEGFR2 in PAE/KDR cells”. Besides, in the data set with VEGFR1 (FLT-1), Flt-1/Fc, the “Blocks VEGF from binding to VEGFR1” value is recorded as “No”. Moreover, the “Tumor growth retardation in NCI-H358 tumor model, lower dose” value in the data set on NCI-H358 NSCLC (10 μg twice per wk) was “less marked”. Further, the Final tumor volume entry with NCI-H358 NSCLC (100 μg i.p. 2 times per wk from day 1, controls approximately 1000 mm^3) was “approximately 150 mm^3”.

The values are drawn from patent US6887468B1 (Board of Regents, The University of Texas System, priority 1999, dated 2005).
